Data from patent US20150105252A1, “SUBSTITUTED PYRAZOLES AS HERBICIDES” (E I DU PONT DE NEMOURS AND COMPANY, priority 2013, published 2015).

Assays:
bluegrass = experiment: Test D preemergence; assay type: in vivo, Poa annua; settings: for Plant response rating, Bluegrass: Preemergence, scale 0 to 100
Outline: (§1)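 Visual 0-100 rating (100 = complete control) against untreated plants, made 14 to 21 days after treatment in a controlled environment. Compounds, formulated with surfactant in non-phytotoxic solvent, were applied either to seeds just sown in silt loam or to 1- to 4-leaf plants (2 to 18 cm) grown in peat-based medium.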

blackgrass = experiment: Test D preemergence; assay type: in vivo, Alopecurus myosuroides; settings: for Plant response rating, Blackgrass: Preemergence, scale 0 to 100
Outline: as §1

galium [1] = experiment: Test D preemergence; assay type: in vivo, Galium aparine; settings: Preemergence, scale 0 to 100
Outline: as §1

foxtail, green [2] = experiment: Test D preemergence; assay type: in vivo, Setaria viridis; settings: for Plant response rating, Foxtail, Green: Preemergence, scale 0 to 100
Outline: as §1

kochia = experiment: Test D preemergence; assay type: in vivo, Kochia scoparia; settings: for Plant response rating, Kochia: Preemergence, scale 0 to 100
Outline: as §1

oilseed rape = experiment: Test D preemergence; assay type: in vivo, Brassica napus; settings: for Plant response rating, Oilseed Rape: Preemergence, scale 0 to 100
Outline: as §1

chamomile [3] = experiment: Test D preemergence; assay type: in vivo, Matricaria inodora; settings: for Plant response rating, Chamomile: Preemergence, scale 0 to 100
Outline: as §1

wheat, spring = experiment: Test D preemergence; assay type: in vivo, Triticum aestivum; settings: for Plant response rating, Wheat, Spring: Preemergence, scale 0 to 100
Outline: as §1

wheat, winter = experiment: Test D preemergence; assay type: in vivo, Triticum aestivum; settings: for Plant response rating, Wheat, Winter: Preemergence, scale 0 to 100
Outline: as §1

mustard, wild = experiment: Test D preemergence; assay type: in vivo, Sinapis arvensis; settings: for Plant response rating, Mustard, Wild: Preemergence, scale 0 to 100
Outline: as §1

oat, wild = experiment: Test D preemergence; assay type: in vivo, Avena fatua; settings: for Plant response rating, Oat, Wild: Preemergence, scale 0 to 100
Outline: as §1

canarygrass = experiment: Test D postemergence; assay type: in vivo, Phalaris minor; settings: scale 0 to 100
Outline: as §1

galium [4] = experiment: Test D postemergence; assay type: in vivo, Galium aparine; settings: scale 0 to 100
Outline: as §1

field violet = experiment: Test D postemergence; assay type: in vivo, Viola arvensis; settings: scale 0 to 100
Outline: as §1

foxtail, green [5] = experiment: Test D postemergence; assay type: in vivo, Setaria viridis; settings: scale 0 to 100
Outline: as §1

lambsquarters = experiment: Test D postemergence; assay type: in vivo, Chenopodium album; settings: scale 0 to 100
Outline: as §1

chamomile [6] = experiment: Test D postemergence; assay type: in vivo, Matricaria inodora; settings: scale 0 to 100
Outline: as §1

speedwell = experiment: Test D postemergence; assay type: in vivo, Veronica persica; settings: scale 0 to 100
Outline: as §1

barley, spring = experiment: Test D postemergence; assay type: in vivo, Hordeum vulgare; settings: scale 0 to 100
Outline: as §1

barley, winter = experiment: Test D postemergence; assay type: in vivo, Hordeum vulgare; settings: scale 0 to 100
Outline: as §1

[7] = 16 g ai/ha, taken as preemergence

O=C(NC1CC1)c1cc(CCF)n(Cc2ccnc(C(F)(F)F)c2)n1 [Compound 176]
Plant response rating (scale 0 to 100), Bluegrass (bluegrass; [7]): 0 | Plant response rating, Bluegrass (bluegrass; 31 g ai/ha): 0 | Plant response rating, Bluegrass (bluegrass; 62 g ai/ha): 10 | Plant response rating, Bluegrass (bluegrass; 125 g ai/ha): 20 | Plant response rating (scale 0 to 100), Blackgrass (blackgrass; [7]): 0 | Plant response rating, Blackgrass (blackgrass; 31 g ai/ha): 0 | Plant response rating, Blackgrass (blackgrass; 62 g ai/ha): 10 | Plant response rating, Blackgrass (blackgrass; 125 g ai/ha): 20 | Plant response rating, Galium (galium [1]; 62 g ai/ha): 60 | Plant response rating, Galium (galium [1]; 125 g ai/ha): 85 | Plant response rating (scale 0 to 100), Foxtail, Green (foxtail, green [2]; [7]): 0 | Plant response rating, Foxtail, Green (foxtail, green [2]; 62 g ai/ha): 15 | Plant response rating, Foxtail, Green (foxtail, green [2]; 125 g ai/ha): 40 | Plant response rating (scale 0 to 100), Kochia (kochia; [7]): 5 | Plant response rating, Kochia (kochia; 62 g ai/ha): 45 | Plant response rating, Kochia (kochia; 125 g ai/ha): 100 | Plant response rating (scale 0 to 100), Oilseed Rape (oilseed rape; [7]): 0 | Plant response rating, Oilseed Rape (oilseed rape; 62 g ai/ha): 35 | Plant response rating, Oilseed Rape (oilseed rape; 125 g ai/ha): 65 | Plant response rating (scale 0 to 100), Chamomile (chamomile [3]; [7]): 5 | Plant response rating, Chamomile (chamomile [3]; 31 g ai/ha): 5 | Plant response rating, Chamomile (chamomile [3]; 62 g ai/ha): 10 | Plant response rating, Chamomile (chamomile [3]; 125 g ai/ha): 50 | Plant response rating (scale 0 to 100), Wheat, Spring (wheat, spring; [7]): 0 | Plant response rating, Wheat, Spring (wheat, spring; 62 g ai/ha): 0 | Plant response rating, Wheat, Spring (wheat, spring; 125 g ai/ha): 5 | Plant response rating (scale 0 to 100), Wheat, Winter (wheat, winter; [7]): 0 | Plant response rating, Wheat, Winter (wheat, winter; 62 g ai/ha): 0 | Plant response rating, Wheat, Winter (wheat, winter; 125 g ai/ha): 5 | Plant response rating (scale 0 to 100), Mustard, Wild (mustard, wild; [7]): 10 | Plant response rating, Mustard, Wild (mustard, wild; 62 g ai/ha): 90 | Plant response rating, Mustard, Wild (mustard, wild; 125 g ai/ha): 100 | Plant response rating (scale 0 to 100), Oat, Wild (oat, wild; [7]): 0 | Plant response rating, Oat, Wild (oat, wild; 62 g ai/ha): 10 | Plant response rating, Oat, Wild (oat, wild; 125 g ai/ha): 40 | Plant response rating, Canarygrass (canarygrass; Postemergence, 16 g ai/ha): 5 | Canarygrass plant response rating (canarygrass; Postemergence, 31 g ai/ha): 15 | Canarygrass plant response rating (canarygrass; Postemergence, 125 g ai/ha): 20 | Canarygrass plant response rating (canarygrass; postemergence, 62 g ai/ha): 15 | Plant response rating, Galium (galium [4]; Postemergence, 16 g ai/ha): 55 | Galium plant response rating (galium [4]; Postemergence, 31 g ai/ha): 65 | Galium plant response rating (galium [4]; Postemergence, 125 g ai/ha): 65 | Galium plant response rating (galium [4]; postemergence, 62 g ai/ha): 65 | Plant response rating, Field Violet (field violet; Postemergence, 16 g ai/ha): 35 | Field Violet plant response rating (field violet; Postemergence, 31 g ai/ha): 50 | Field Violet plant response rating (field violet; Postemergence, 125 g ai/ha): 70 | Field Violet plant response rating (field violet; postemergence, 62 g ai/ha): 50 | Plant response rating, Foxtail, Green (foxtail, green [5]; Postemergence, 16 g ai/ha): 10 | Foxtail, Green plant response rating (foxtail, green [5]; Postemergence, 31 g ai/ha): 20 | Foxtail, Green plant response rating (foxtail, green [5]; Postemergence, 125 g ai/ha): 35 | Foxtail, Green plant response rating (foxtail, green [5]; postemergence, 62 g ai/ha): 20 | Plant response rating, Lambsquarters (lambsquarters; Postemergence, 16 g ai/ha): 55 | Lambsquarters plant response rating (lambsquarters; Postemergence, 31 g ai/ha): 60 | Lambsquarters plant response rating (lambsquarters; Postemergence, 125 g ai/ha): 75 | Lambsquarters plant response rating (lambsquarters; postemergence, 62 g ai/ha): 60 | Plant response rating, Chamomile (chamomile [6]; Postemergence, 16 g ai/ha): 10 | Chamomile plant response rating (chamomile [6]; Postemergence, 31 g ai/ha): 15 | Chamomile plant response rating (chamomile [6]; Postemergence, 125 g ai/ha): 35 | Chamomile plant response rating (chamomile [6]; postemergence, 62 g ai/ha): 15 | Plant response rating, Speedwell (speedwell; Postemergence, 16 g ai/ha): 50 | Speedwell plant response rating (speedwell; Postemergence, 31 g ai/ha): 70 | Speedwell plant response rating (speedwell; Postemergence, 125 g ai/ha): 70 | Speedwell plant response rating (speedwell; postemergence, 62 g ai/ha): 70 | Barley, Spring plant response rating (barley, spring; Postemergence, 16 g ai/ha): 0 | Barley, Spring plant response rating (barley, spring; Postemergence, 31 g ai/ha): 10 | Barley, Spring plant response rating (barley, spring; Postemergence, 125 g ai/ha): 15 | Barley, Spring plant response rating (barley, spring; postemergence, 62 g ai/ha): 10 | Barley, Winter plant response rating (barley, winter; Postemergence, 16 g ai/ha): 0 | Barley, Winter plant response rating (barley, winter; Postemergence, 31 g ai/ha): 10 | Barley, Winter plant response rating (barley, winter; Postemergence, 125 g ai/ha): 20 | Barley, Winter plant response rating (barley, winter; postemergence, 62 g ai/ha): 10
